Measured values as given in patent publication US20250152605A1, “METHOD AND DRUG FOR TREATING NEURONAL CEROID LIPOFUSCINOSIS” (priority 2021, published 2025).

What was measured:
[1] = test system: CLN3^Δex7/8 human neurons; experiment: Lysotracker staining of CLN3^Δex7/8 human neurons, flow cytometry; type: cell-based
Procedure: In analyzing the mean fluorescence intensity of neural stem cells and neuronal staining or single cell establishment of NRK cells, flow cytometry was used: the cell medium was aspirated off, after wash with dPBS once, the digestive enzyme corresponding to the cell type was added to digest into single cells; the supernatant was removed by centrifugation, and the cells were resuspended with 1 mL of fresh medium; the cell suspension with filtered through 40 μm filter membrane and the single cell filtrate was collected; the single cell filtrate was transferred to a flow tube and analyzed or sorted using BD FACS Aria III; in the analysis, the fluorescence intensity of 1×10^4 cells for each sample was analyzed to obtain the mean fluorescence intensity (MFI); for sorting, cells were received in 96 well plates with medium, one cell per well to establish a cell line.
Studies above have shown that CLN3^Δex7/8 human neurons feature lysosomal acidity dysregulation. To investigate the effect of Compound G on lysosomal acidity in CLN3^Δex7/8 neurons, Lysotracker dye was used for staining and flow cytometry was used for analyzing the fluorescence intensity of Lysotracker dye in cells.

Cln3 KO mice [2] = experiment: Morris water maze; type: in vivo, mouse; conditions: 7th day test
Procedure: To test the difference in learning and memory abilities of Cln3 KO mice and wild-type mice, and the effect of Compound G on learning and memory abilities of Cln3 KO mice, a Morris water maze was performed, with specific procedures as follows: the mice to be tested were kept in single cages for more than 1 week to adapt to the environment; the maze used in this study was a circular pool with a diameter of 120 cm and a depth of 40 cm; the pool wall is divided into four quadrants including northeast (NE), northwest (NW), southwest (SW) and southeast (SE) with circles, squares, triangles and crosses respectively. The platform was placed at a fixed position in the SW quadrant with a diameter of 11 cm and a height of 18 cm; milky white water containing titanium dioxide was added to the pool, the amount of added water being just short of the platform is suitable; the water temperature was adjusted to about 22° C.; the mouse was gently put into the water from the designated position shown in Table 5, and the movement of the mouse within 60 seconds was recorded through the video equipment. If the mouse found the platform within 60 seconds, its time to find the platform was recorded; if the mouse could not find the platform within 60 seconds, it was guided to the platform and held for 15 seconds.
The mice were removed from the platform, wiped clean with a dry towel and returned to their cages. Each mouse was trained 4 times a day, with a 30-minute interval between each training, for a total of 6 days, and mice that cannot swim were excluded; on the Day 7, the platform in the water was taken out, and then the mice were gently put into the water from the NE direction, and the movement of the mouse within 60 seconds was recorded with a video equipment. The time it took for the mouse to find the platform for the first time and the time the mouse stayed in the SW quadrant were analyzed and counted using Noldus software. In addition, the experimenter manually counted the number of times the mouse crossed the location of the original platform within 60 seconds.
Starting from day 21 on which the Cln3 KO mice were weaned, treatment of Compound G was continuously provided. […]
First, the mice were trained in the water maze for 6 days, and the time it took for them to find the underwater platform was recorded. […] The time that the mice spent reaching the position of the original platform for the first time, the number of shuttles at the position of the original platform and the time stayed in the quadrant of the original platform were recorded, which characterized whether they have learned the position of the underwater platform through the first 6 days of training.

Cln3 KO mice [3] = experiment: Rotarod test (roller experiment); type: in vivo, mouse; conditions: 4th day of testing
Procedure: First, the roller experiment was conducted. Treatment of Compound G was continuously provided to the mice after weaned on day 21. When the wild-type mice, the Cln3 KO mice and the Compound G-treated Cln3 KO mice reached 4-5 months of age, roller training for 3 days was conducted, and test was conducted on the 4th day for the motor ability of the mice on the roller.

NRF2 downstream genes = experiment: qRT-PCR of NRF2 downstream genes; type: cell-based; conditions: CLN3^Δex7/8 human neural stem cells, 6 hours
Procedure: The cells in the cell-culture dish were collected, extracted using AxyPrep Total RNA Mini Prep Kit or Qiagen AxyPrep Total RNA Mini Prep Kit, and the extracted RNA concentration is measured using Nanodrop; the extracted mRNA was reverse transcribed into cDNA by Transgen's EasyScript® One-Step gDNA Removal and cDNA Synthesis SuperMix and the primers used for reverse transcription were Oligo dT primers; the completion of reverse transcription followed by qRT-PCR reaction through PerfectStart™ Green qPCR SuperMix to detect the expression of the target gene; the qRT-PCR reaction was performed on the Bio-Rad CFX96 Real-Time PCR system; see Table 2 and Table 3 for the 20 μL qRT-PCR reaction system and reaction procedures; data analysis was performed in Prism 7 software using the 2^−ΔΔCt process with GAPDH as internal reference for relative quantification of the expression of the target gene.
Primers were further designed, verification of qRT-PCR was conducted on the above activated genes in the downstream of NRF2. After treating CLN3^Δex7/8 human neural stem cells with Compound G for 6 hours, the cells were collected and mRNA was extracted for detecting the expression level of the genes.

SMILES: C/C=C1\C(=O)C[C@H]2[C@@H]3CCC4=CC(=O)CC[C@]4(C)[C@H]3CC[C@]12C [Compound G, (Z)-guggulsterone]
- Lysotracker fluorescence intensity in CLN3^Δex7/8 human neurons [1]: increased significantly
- movement speed of the mice in water (Cln3 KO mice [2]): no significant effect
- number of times they shuttle at the position of the original platform (Cln3 KO mice [2]): closer to that of the wild-type mice
- time spent reaching the position of the original platform for the first time (Cln3 KO mice [2]): effectively shorten
- time stayed in the quadrant of the original platform (Cln3 KO mice [2]): extended the time stayed in the quadrant of the original platform to a certain extent
- falling time from the roller (Cln3 KO mice [3]): significantly extended
- expression level of most NRF2 downstream genes (NRF2 downstream genes): significantly increase
